Results as given in patent US4587046A, “Drug-carrier conjugates” (The Regents of the University of California, priority 1982, dated 1986).
Square brackets hold non-standard residues; d marks the D form. Peptide text beside a SMILES is read from it. * marks the point of attachment. Phe(4-NH2) = Nc1ccc(C[C@H](N)C(=O)O)cc1; X1 = CC(CCCCC(=O)*)NCC(O)c1ccc(O)c(O)c1; Nva(5-OH) = N[C@@H](CCCO)C(=O)O; Boc = CC(C)(C)OC(=O)*

Tests used:
S49 cells = assay: wild type S49 cell assay, cyclic AMP accumulation (relative beta adrenergic activity); type: cell-based; details: in vitro, ratio of KA for isoproterenol to KA for the compound, isoproterenol = 1
Description: The biological activity of the conjugates of the invention was tested in a wild type S49 cell assay. The assay is indicative of the relative beta adrenergic activity of the compound. The activity of each conjugate tested was compared to the activity of isoproterenol as the base standard. In the test, S49 cells were centrifuged and then resuspended (2 to 2.5×10^6 cells per ml.) in Dulbecco's modified Eagle medium (13.3 g per liter) and 20 mM Hepes (pH 7.4)+0.1% bovine serum albumin. The S49 suspensions were incubated at 37° C. for 10 minutes without the conjugate and then added to tubes with or without the conjugate for an additional 6 minutes. The reaction was stopped by cooling on ice. Incubation without the conjugates present established a base line. After isolation of a pellet of cells by centrifugation they were resuspended and boiled. Aliquots were then used for the competitive binding assay for cyclic AMP described by Gilman in the Procedings of the National Academy of Sciences USA 67, 305-312 (1970). Results were plotted as pmol cyclic AMP accumulated per 10^7 cells in excess of base line as a function of the log of the concentration of the analog. | ^a Biological activity was measured by cyclic AMP accumulation in S49 | cells. Relative activity is expressed as the ration of KA for | isoproterenol to KA for the compound.

rat blood pressure = assay: in vivo reduction of rat blood pressure after injection into the femoral vein; parameters: species or system male Sprague-Dawley rats; details: 0.001 to 10.0 mg/kg, ratio of molar ED50 of isoproterenol to molar ED50 of the compound (dose that reduces rat blood pressure by 50%)
Description: In addition to the in vitro testing set forth above, in vivo testing was also conducted on a number of conjugates of the invention. The tests were conducted by injecting various doses of the test conjugate into the femoral vein of rats and thereafter recording changes in heart rate, arterial pulse pressure and mean pressure.
More specifically, male Sprague-Dawley rats weighing 280-350 g had their femoral arteries connected to a Statham P-23 pressure transducer, which was in turn recorded on a Beckman Dynograph model R511A. Venus cannula were inserted in the femoral veins. Two syringes were attached to the veins via a 3-way stopcock. One syringe contained heparinized saline (40 units/ml) while the other contained the conjugate to be tested.
All cannulas were periodically flushed with the heparinized saline to prevent clots from forming. After the blood pressure and heart rate had stabilized, a volume of heparinized saline corresponding to the volume of drug conjugate the animal was to receive, was injected, and the response observed. Then various doses of the test drug conjugate were injected with a minimum interval of ten minutes between doses. The dose range was from 0.001 to 10.0 mg/kg, with the doses always being administered in increasing amounts. From the drug injections, a dose-response curve was obtained. The response curves were then compared to the animals' response to isoproterenol administered under the same conditions. Table 3 below presents the results of these in vivo tests:
^a Biological activity in vivo was measured as the effective dose tha
reduces rat blood pressure by 50%. Relative activity is expressed as the
ratio of the molar ED50 of isoproterenol to the molar ED50 of […]

Compound | Activity relative to isoproterenol (S49 cells) | In Vivo Activity Relative to Isoproterenol (rat blood pressure)
CC(=O)N[C@@H](Cc1ccc(NC(=O)CCCCC(C)NCC(O)c2ccc(O)c(O)c2)cc1)C(=O)NCCCO (some centres unmarked) [A] | 9.0 × 10^-2 | 
CC(=O)N[C@H](Cc1ccc(NC(=O)CCCCC(C)NCC(O)c2ccc(O)c(O)c2)cc1)C(=O)NCCCO (some centres unmarked) [B] | 4.0 × 10^-1 | 
CC(=O)N[C@@H](Cc1ccc(NC(=O)CCCCC(C)NCC(O)c2ccc(O)c(O)c2)cc1)C(=O)NCC(=O)O (some centres unmarked) [C] | 4.4 × 10^-1 | 
CNC(=O)CNC(=O)[C@H](Cc1ccc(NC(=O)CCCCC(C)NCC(O)c2ccc(O)c(O)c2)cc1)NC(C)=O (stereo partly drawn) [D, N^α -Acetyl-p-[6-(β-3',4-Dihydroxyphenyl-β-Hydroxy)-Ethylamino-n-Heptanoylamino]-L-Phenylalanyl-Glycyl-Methylamide] | 1.1 | 
CNC(=O)CNC(=O)[C@H](Cc1ccc(NC(=O)CCCCC(C)NCC(O)c2ccc(O)c(O)c2)cc1)NC(=O)OC(C)(C)C (stereo partly drawn) [E, N^α -t-Butyloxycarbonyl-p-[6-(β-3',4'-Dihydroxyphenyl-β-Hydroxy)-Ethylamino-n-Heptanoylamino]-L-Phenylalanyl-Glycyl-Methylamide] | 4.1 | 3.74
CNC(=O)CNC(=O)[C@@H](N)Cc1ccc(NC(=O)CCCCC(C)NCC(O)c2ccc(O)c(O)c2)cc1 (some centres unmarked) [F] | 1.3 × 10^-4 | 
CNC(=O)[C@H](Cc1ccc(NC(=O)CCCCC(C)NCC(O)c2ccc(O)c(O)c2)cc1)NC(=O)CNC(=O)OC(C)(C)C (some centres unmarked) [G] | 6.8 × 10^-1 | .92
CNC(=O)CC[C@H](NC(C)=O)C(=O)N[C@@H](Cc1ccc(NC(=O)CCCCC(C)NCC(O)c2ccc(O)c(O)c2)cc1)C(=O)NCC(=O)NC (some centres unmarked) [H] | 3.7 × 10^-6 | 1.77
CNC(=O)CNC(=O)[C@H](Cc1ccc(NC(=O)CCCCC(C)NCC(O)c2ccc(O)c(O)c2)cc1)NC(=O)[C@H](CCCO)NC(C)=O (some centres unmarked) [I] | 8.0 × 10^-5 | 1.48
CNC(=O)CNC(=O)[C@H](Cc1ccc(NC(=O)CCCCC(C)NCC(O)c2ccc(O)c(O)c2)cc1)NC(=O)[C@H](CCCNC(N)=O)NC(C)=O (some centres unmarked) [J] |  | .79
CNC(=O)CNC(=O)[C@H](Cc1ccc(NC(=O)CCCCC(C)NCC(O)c2ccc(O)c(O)c2)cc1)NC(=O)[C@H](CCCNC(N)=O)NC(=O)OC(C)(C)C (some centres unmarked) [K] | 3.8 × 10^-5 | .22
CNC(=O)CC[C@H](NC(C)=O)C(=O)N[C@@H](Cc1ccc(NC(=O)CCCC(C)NCC(O)c2ccc(O)c(O)c2)cc1)C(=O)N[C@@H](CCC(=O)NC)C(=O)NC (some centres unmarked) [L] | 4.5 × 10^-6 | 
CNC(=O)CC[C@H](NC(C)=O)C(=O)N[C@@H](Cc1ccc(NC(=O)CCCCC(C)NCC(O)c2ccc(O)c(O)c2)cc1)C(=O)N[C@@H](CCC(=O)NC)C(=O)NC (stereo partly drawn) [M, N^α -Acetyl-N'-Methyl-L-Glutaminyl-p-[6-(β-3',4'-Dihydroxyphenyl-β-Hydroxy)-Ethylamino-n-Heptanoylamino]-L-Phenylalanyl-N'-Methyl-L-Glutaminyl-Methylamide] | 2.3 × 10^-5 | 
CNC(=O)CC[C@H](NC(C)=O)C(=O)N[C@@H](Cc1ccc(NC(=O)CCCCCC(C)NCC(O)c2ccc(O)c(O)c2)cc1)C(=O)N[C@@H](CCC(=O)NC)C(=O)NC (some centres unmarked) [N] | 8.6 × 10^-6 | 
CNC(=O)CNC(=O)[C@H](Cc1ccc(NC(=O)CCCCC(C)NCC(O)c2ccc(O)c(O)c2)cc1)NC(=O)[C@H](CCCO)NC(=O)[C@H](CCCO)NC(=O)[C@H](CCCO)NC(=O)OC(C)(C)C (some centres unmarked) [O] (Boc-[Nva(5-OH)][Nva(5-OH)][Nva(5-OH)][Phe(4-NH2)](X1)G-NHMe) | 1.0 | .76
CNC(=O)CNC(=O)[C@H](CCCO)NC(=O)[C@H](CCCO)NC(=O)[C@H](CCCO)NC(=O)[C@H](Cc1ccc(NC(=O)CCCCC(C)NCC(O)c2ccc(O)c(O)c2)cc1)NC(=O)OC(C)(C)C (some centres unmarked) [P] (Boc-[Phe(4-NH2)](X1)[Nva(5-OH)][Nva(5-OH)][Nva(5-OH)]G-NHMe) | 7.9 × 10^-1 | .59
